{"source": "patent US12428406B2", "about": "(PMV Pharmaceuticals, Inc., priority 2019, dated 2025)"}
{"target": "T1, p53 Y220C (Homo sapiens, UniProt P04637, Y220C)", "T1 construct": "The recombinant protein was a truncation mutant containing only amino acids 94-312 of p53; made in house; host or cells: E. coli", "T1 sequence (P04637 94-312, change not shown)": "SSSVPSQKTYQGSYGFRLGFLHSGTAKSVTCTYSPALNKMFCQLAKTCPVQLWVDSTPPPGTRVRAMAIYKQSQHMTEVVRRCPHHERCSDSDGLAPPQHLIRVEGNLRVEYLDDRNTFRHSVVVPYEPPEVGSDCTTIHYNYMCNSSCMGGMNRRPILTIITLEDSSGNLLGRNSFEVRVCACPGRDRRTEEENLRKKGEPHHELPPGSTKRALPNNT", "experiment": "In vitro DNA binding activity assay (HTRF / TR-FRET): stabilization of p53 Y220C and increase of its DNA binding activity", "type": "biochemical", "conditions": "recombinant His-tagged p53 Y220C DNA binding domain (aa 94-312), biotin-labeled consensus DNA, incubated at 27° C. or 29° C. for 60 min", "outline": "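E. coli His-p53 Y220C + biotin consensus DNA; anti-His-APC/SA-Eu TR-FRET. SC150 vs no-compound.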"}
{"smiles": "NS(=O)(=O)c1ccc(NCC#Cc2cc3c(N[C@H]4CC[C@H](N5CCC6(CC5)COC6)CC4)cccc3n2CC(F)(F)F)c(OCF)c1", "note": "[Compound 381A, 3-(fluoromethoxy)-4-{[3-(4-{[(1R,4R)-4-{2-oxa-7-azaspiro[3.5]nonan-7-yl}cyclohexyl]amino}-1-(2,2,2-trifluoroethyl)-1H-indol-2-yl)prop-2-yn-1-yl]amino}benzene-1-sulfonamide]", "SC150 (concentration of the compound required to increase the DNA binding activity by 50%)": "+ (+ = 0 μM ≤ SC150 < 0.05 μM)"}
{"smiles": "COc1cc(S(C)(=O)=O)ccc1NCC#Cc1cc2c(N[C@H]3CC[C@H](N4CCC5(CCO5)CC4)CC3)cccc2n1CC(F)(F)F", "note": "[Compound 383A, 2-{3-[(4-methane-sulfonyl-2-methoxy-phenyl)amino]prop-1-yn-1-yl}-N-[(1R,4R)-4-{1-oxa-7-azaspiro[3.5]nonan-7-yl}cyclohexyl]-1-(2,2,2-trifluoroethyl)-1H-indol-4-amine]", "SC150 (concentration of the compound required to increase the DNA binding activity by 50%)": "+ (+ = 0 μM ≤ SC150 < 0.05 μM)"}
{"smiles": "CNC(=O)c1ccc(NCC#Cc2cc3c(N[C@H]4CC[C@H](N5CCC6(CCO6)CC5)CC4)cccc3n2CC(F)(F)F)c(OC)c1", "note": "[Compound 385A, 3-methoxy-N-methyl-4-{[3-(4-{[(1R,4R)-4-{1-oxa-7-azaspiro[3.5]nonan-7-yl}cyclohexyl]amino}-1-(2,2,2-trifluoroethyl)-1H-indol-2-yl)prop-2-yn-1-yl]amino}benzamide]", "SC150 (concentration of the compound required to increase the DNA binding activity by 50%)": "+ (+ = 0 μM ≤ SC150 < 0.05 μM)"}
{"smiles": "COc1cc(S(N)(=O)=O)ccc1NCC#Cc1cc2c(N[C@H]3CC[C@H](N4CCC5(CCO5)CC4)CC3)cccc2n1CC(F)(F)F", "note": "[Compound 387A, 3-methoxy-4-{[3-(4-{[(1R,4R)-4-{1-oxa-7-azaspiro[3.5]nonan-7-yl}cyclohexyl]amino}-1-(2,2,2-trifluoroethyl)-1H-indol-2-yl)prop-2-yn-1-yl]amino}benzene-1-sulfonamide]", "SC150 (concentration of the compound required to increase the DNA binding activity by 50%)": "+ (+ = 0 μM ≤ SC150 < 0.05 μM)"}
{"smiles": "CS(=O)(=O)c1ccc(NCC#Cc2cc3c(N[C@H]4CC[C@H](N5CCC6(CC5)COC6)CC4)cccc3n2CC(F)(F)F)c(OCC#N)c1", "note": "[Compound 389A, 2-(5-methanesulfonyl-2-{[3-(4-{[(1R,4R)-4-{2-oxa-7-azaspiro[3.5]nonan-7-yl}cyclohexyl]amino}-1-(2,2,2-trifluoroethyl)-1H-indol-2-yl)prop-2-yn-1-yl]amino}phenoxy)acetonitrile]", "SC150 (concentration of the compound required to increase the DNA binding activity by 50%)": "+ (+ = 0 μM ≤ SC150 < 0.05 μM)"}
{"smiles": "CS(=O)(=O)c1ccc(NCC#Cc2cc3c(N[C@H]4CC[C@@H](N5CCC6(CC5)COC6)CC4)cccc3n2CC(F)(F)F)c(OCC#N)c1", "note": "[Compound 390A, 2-(5-methanesulfonyl-2-{[3-(4-{[(1S,4S)-4-{2-oxa-7-azaspiro[3.5]nonan-7-yl}cyclohexyl]amino}-1-(2,2,2-trifluoroethyl)-1H-indol-2-yl)prop-2-yn-1-yl]amino}phenoxy)acetonitrile]", "SC150 (concentration of the compound required to increase the DNA binding activity by 50%)": "+ (+ = 0 μM ≤ SC150 < 0.05 μM)"}
{"smiles": "CS(=O)(=O)c1ccc(NCC#Cc2cc3c(N[C@H]4CC[C@H](N5CCC6(CC5)COC6)CC4)cccc3n2CC(F)(F)F)c(OCF)c1", "note": "[Compound 391A, 2-(3-{[2-(fluoro-methoxy)-4-methane-sulfonylphenyl]amino}prop-1-yn-1-yl)-N-[(1R,4R)-4-(2-oxa-7-azaspiro[3.5]nonan-7-yl}cyclohexyl]-1-(2,2,2-trifluoroethyl)-1H-indol-4-amine]", "SC150 (concentration of the compound required to increase the DNA binding activity by 50%)": "+ (+ = 0 μM ≤ SC150 < 0.05 μM)"}
{"smiles": "CCOc1cc(S(C)(=O)=O)ccc1NCC#Cc1cc2c(N[C@H]3CC[C@H](N4CCC5(CC4)COC5)CC3)cccc2n1CC(F)(F)F", "note": "[Compound 393A, N-((1R,4R)-4-(2-oxa-7-azaspiro[3.5]nonan-7-yl)cyclohexyl)-2-(3-((2-ethoxy-4-(methylsulfonyl)phenyl)amino)prop-1-yn-1-yl)-1-(2,2,2-trifluoroethyl)-1H-indol-4-amine]", "SC150 (concentration of the compound required to increase the DNA binding activity by 50%)": "+ (+ = 0 μM ≤ SC150 < 0.05 μM)"}
{"smiles": "CNS(=O)(=O)c1ccc(NCC#Cc2cc3c(N[C@H]4CC[C@H](N5CCC6(CC5)COC6)CC4)cccc3n2CC(F)(F)F)c(OC)c1", "note": "[Compound 395A, 3-methoxy-N-methyl-4-{[3-(4-{[(1R,4R)-4-{2-oxa-7-azaspiro[3.5]nonan-7-yl}cyclohexyl]amino}-1-(2,2,2-trifluoroethyl)-1H-indol-2-yl)prop-2-yn-1-yl]amino}benzene-1-sulfonamide]", "SC150 (concentration of the compound required to increase the DNA binding activity by 50%)": "+ (+ = 0 μM ≤ SC150 < 0.05 μM)"}
{"smiles": "COc1cc(S(C)(=O)=O)ccc1NCC#Cc1cc2c(N[C@H]3CC[C@H](N4CC5CC(C4)O5)CC3)cccc2n1CC(F)(F)F", "note": "[Compound 398A, 2-{3-[(4-methanesulfonyl-2-methoxyphenyl)amino]prop-1-yn-1-yl}-N-[(1R,4R)-4-{6-oxa-3-azabicyclo[3.1.1]heptan-3-yl}cyclohexyl]-1-(2,2,2-trifluoroethyl)-1H-indol-4-amine]", "SC150 (concentration of the compound required to increase the DNA binding activity by 50%)": "+ (+ = 0 μM ≤ SC150 < 0.05 μM)"}
{"smiles": "COc1cc(S(C)(=O)=O)ccc1NCC#Cc1cc2c(N[C@H]3CC[C@@H](N4CC5CC(C4)O5)CC3)cccc2n1CC(F)(F)F", "note": "[Compound 399A, 2-{3-[(4-methanesulfonyl-2-methoxyphenyl)amino]prop-1-yn-1-yl}-N-[(1S,4S)-4-{6-oxa-3-azabicyclo[3.1.1]heptan-3-yl}cyclohexyl]-1-(2,2,2-trifluoroethyl)-1H-indol-4-amine]", "SC150 (concentration of the compound required to increase the DNA binding activity by 50%)": "+ (+ = 0 μM ≤ SC150 < 0.05 μM)"}
{"smiles": "COc1cc(S(N)(=O)=O)ccc1NCC#Cc1cc2c(N[C@H]3CC[C@H](N4CC5CC(C4)O5)CC3)cccc2n1CC(F)(F)F", "note": "[Compound 400A, 3-methoxy-4-{[3-(4-{[(1R,4R)-4-{6-oxa-3-azabicyclo[3.1.1]heptan-3-yl}cyclohexyl]amino}-1-(2,2,2-trifluoroethyl)-1H-indol-2-yl)prop-2-yn-1-yl]amino}benzene-1-sulfonamide]", "SC150 (concentration of the compound required to increase the DNA binding activity by 50%)": "+ (+ = 0 μM ≤ SC150 < 0.05 μM)"}
{"smiles": "COc1cc(S(N)(=O)=O)ccc1NCC#Cc1cc2c(N[C@H]3CC[C@@H](N4CC5CC(C4)O5)CC3)cccc2n1CC(F)(F)F", "note": "[Compound 401A, 3-methoxy-4-{[3-(4-{[(1S,4S)-4-{6-oxa-3-azabicyclo[3.1.1]heptan-3-yl}cyclohexyl]amino}-1-(2,2,2-trifluoroethyl)-1H-indol-2-yl)prop-2-yn-1-yl]amino}benzene-1-sulfonamide]", "SC150 (concentration of the compound required to increase the DNA binding activity by 50%)": "++ (++ = 0.05 μM ≤ SC150 < 0.1 μM)"}
{"smiles": "CNC(=O)c1ccc(NCC#Cc2cc3c(N[C@H]4CC[C@H](N5CC6CC(C5)O6)CC4)cccc3n2CC(F)(F)F)c(OC)c1", "note": "[Compound 402A, 3-methoxy-N-methyl-4-{[3-(4-{[(1R,4R)-4-{6-oxa-3-azabicyclo[3.1.1]heptan-3-yl}cyclohexyl]amino}-1-(2,2,2-trifluoroethyl)-1H-indol-2-yl)prop-2-yn-1-yl]amino}benzamide]", "SC150 (concentration of the compound required to increase the DNA binding activity by 50%)": "+ (+ = 0 μM ≤ SC150 < 0.05 μM)"}
{"smiles": "CNC(=O)c1ccc(NCC#Cc2cc3c(N[C@H]4CC[C@@H](N5CC6CC(C5)O6)CC4)cccc3n2CC(F)(F)F)c(OC)c1", "note": "[Compound 403A, 3-methoxy-N-methyl-4-{[3-(4-{[(1S,4S)-4-{6-oxa-3-azabicyclo[3.1.1]heptan-3-yl}cyclohexyl]amino}-1-(2,2,2-trifluoroethyl)-1H-indol-2-yl)prop-2-yn-1-yl]amino}benzamide]", "SC150 (concentration of the compound required to increase the DNA binding activity by 50%)": "++ (++ = 0.05 μM ≤ SC150 < 0.1 μM)"}
{"smiles": "CCOc1cc(S(C)(=O)=O)ccc1NCC#Cc1cc2c(N[C@H]3CC[C@H](N4CC5CC(C4)O5)CC3)cccc2n1CC(F)(F)F", "note": "[Compound 404A, 2-{3-[(2-ethoxy-4-methanesulfonyl-phenyl)amino]prop-1-yn-1-yl}-N-[(1R,4R)-4-{6-oxa-3-azabicyclo[3.1.1]heptan-3-yl}cyclohexyl]-1-(2,2,2-trifluoroethyl)-1H-indol-4-amine]", "SC150 (concentration of the compound required to increase the DNA binding activity by 50%)": "+ (+ = 0 μM ≤ SC150 < 0.05 μM)"}
{"smiles": "CCOc1cc(S(C)(=O)=O)ccc1NCC#Cc1cc2c(N[C@H]3CC[C@@H](N4CC5CC(C4)O5)CC3)cccc2n1CC(F)(F)F", "note": "[Compound 405A, 2-{3-[(2-ethoxy-4-mcthanesulfonyl-phenyl)amino]prop-1-yn-1-yl}-N-[(1S,4S)-4-{6-oxa-3-azabicyclo[3.1.1]heptan-3-yl}cyclohexyl]-1-(2,2,2-trifluoroethyl)-1H-indol-4-amine]", "SC150 (concentration of the compound required to increase the DNA binding activity by 50%)": "+ (+ = 0 μM ≤ SC150 < 0.05 μM)"}
{"smiles": "CCNC(=O)c1ccc(NCC#Cc2cc3c(N[C@H]4CC[C@H](N5CC6CC(C5)O6)CC4)cccc3n2CC(F)(F)F)c(OC)c1", "note": "[Compound 406A, N-ethyl-3-methoxy-4-{[3-(4-{[(1R,4R)-4-{6-oxa-3-azabicyclo[3.1.1]heptan-3-yl}cyclohexyl]amino}-1-(2,2,2-trifluoroethyl)-1H-indol-2-yl)prop-2-yn-1-yl]amino}benzamide]", "SC150 (concentration of the compound required to increase the DNA binding activity by 50%)": "+ (+ = 0 μM ≤ SC150 < 0.05 μM)"}
{"smiles": "CS(=O)(=O)c1ccc(NCC#Cc2cc3c(N[C@H]4CC[C@H](N5CC6CC(C5)O6)CC4)cccc3n2CC(F)(F)F)c(OCC#N)c1", "note": "[Compound 407A, 2-(5-methanesulfonyl-2-{[3-(4-{[(1R,4R)-4-{6-oxa-3-azabicyclo[3.1.1]heptan-3-yl}cyclohexyl]amino}-1-(2,2,2-trifluoroethyl)-1H-indol-2-yl)prop-2-yn-1-yl]amino}phenoxy)acetonitrile]", "SC150 (concentration of the compound required to increase the DNA binding activity by 50%)": "+ (+ = 0 μM ≤ SC150 < 0.05 μM)"}
{"smiles": "CNC(=O)c1ccc(NCC#Cc2cc3c(N[C@H]4CC[C@H](N5CCC6(CCOC6)CC5)CC4)cccc3n2CC(F)(F)F)c(OC)c1", "note": "[Compound 409A, 3-methoxy-N-methyl-4-{[3-(4-{[(1R,4R)-4-{2-oxa-8-azaspiro[4.5]decan-8-yl}cyclohexyl]amino}-1-(2,2,2-trifluoroethyl)-1H-indol-2-yl)prop-2-yn-1-yl]amino}benzamide]", "SC150 (concentration of the compound required to increase the DNA binding activity by 50%)": "+ (+ = 0 μM ≤ SC150 < 0.05 μM)"}
